Tested on: ATF4 luciferase reporter (human full-length ATF4 5'-UTR fused to firefly luciferase) in HEK293T cells
Assay: ATF4-Luc assay (in vitro model of VWMD): HEK293T cells carrying ATF4 luciferase reporter, tunicamycin-treated
Type: cell-based
Settings: Homo sapiens, HEK-293T, 1 μg/mL tunicamycin, 7 hours, One Glo luminescence
How it was run: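 Compound at 200 nM and tunicamycin at 1 μg/mL were given together for 7 h to HEK293T cells stably transduced with an ATF4 5′-UTR-driven firefly luciferase reporter. Read-out by luminescence, reported as EC50.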

`O=C(COc1ccc(C(F)(F)F)nc1)NC12CC(NC(=O)[C@@H]3CC(=O)c4cc(Cl)ccc4O3)(C1)C2` [Compound 335, (2S)-6-chloro-4-oxo-N-[3-(2-{[6-(trifluoromethyl)pyridin-3-yl]oxy}acetamido)bicyclo[1.1.1]pentan-1-yl]-3,4-dihydro-2H-1-benzopyran-2-carboxamide] showed an EC50 of 50 to 250 nM.
With `O=C(COc1ccc(Cl)c(F)c1)NC12CC(NC(=O)C3CC(NCC(F)(F)F)c4cc(Cl)ccc4O3)(C1)C2` (stereo not drawn) [Compound 336, 6-chloro-N-{3-[2-(4-chloro-3-fluorophenoxy)acetamido]bicyclo[1.1.1]pentan-1-yl}-4-[(2,2,2-trifluoroethyl)amino]-3,4-dihydro-2H-1-benzopyran-2-carboxamide] the EC50 was 250 to 500 nM.
Compound `O=C(COc1ccc(Cl)c(F)c1)NC12CCC(NC(=O)C3CC(O)c4cc(Cl)ccc4O3)(CC1)CC2` (stereo not drawn) [Compound 337, 6-chloro-N-{4-[2-(4-chloro-3-fluorophenoxy)acetamido]bicyclo[2.2.2]octan-1-yl}-4-hydroxy-3,4-dihydro-2H-1-benzopyran-2-carboxamide] has an EC50 of under 10 nM.
Compound `O=C(COc1ccc(Cl)c(F)c1)NC12CC(NC(=O)C3CC(NC4(CO)CC4)c4cc(Cl)ccc4O3)(C1)C2` (stereo not drawn) [Compound 339, 6-chloro-N-{3-[2-(4-chloro-3-fluorophenoxy)acetamido]bicyclo[1.1.1]pentan-1-yl}-4-{[1-(hydroxymethyl)cyclopropyl]amino}-3,4-dihydro-2H-1-benzopyran-2-carboxamide] has an EC50 of 10 to 50 nM.
`Cc1ccc2oc(C(=O)NC34CC(NC(=O)COc5ccc(Cl)c(F)c5)(C3)C4)cc(=O)c2c1` [Compound 341, N-{3-[2-(4-chloro-3-fluorophenoxy)acetamido]bicyclo[1.1.1]pentan-1-yl}-6-methyl-4-oxo-4H-1-benzopyran-2-carboxamide] was tested, and the EC50 was under 10 nM.
With `O=C(COc1ccc(Cl)c(Cl)c1)NC12CC(NC(=O)[C@@H]3CC(=O)c4cc(F)c(F)cc4O3)(C1)C2` [Compound 342, (2S)—N-{3-[2-(3,4-dichlorophenoxy)acetamido]bicyclo[1.1.1]pentan-1-yl}-6,7-difluoro-4-oxo-3,4-dihydro-2H-1-benzopyran-2-carboxamide] the EC50 was 10 to 50 nM.
With `Cc1csc(C(=O)NC23CCC(NC(=O)[C@H]4C[C@@H](O)c5cc(Cl)ccc5O4)(CC2)[C@@H](O)C3)n1` [Compound 344, N-[(3S)-4-{[(2R,4R)-6-chloro-4-hydroxy-3,4-dihydro-2H-1-benzopyran-2-carbonyl]amino}-3-hydroxybicyclo[2.2.2]octan-1-yl]-4-methyl-1,3-thiazole-2-carboxamide] the EC50 was 50 to 250 nM.
Compound `O=C(COc1ccc(Cl)c(F)c1)NC12CC(NC(=O)C3COc4cc(Cl)ccc4C3)(C1)C2` (stereo not drawn) [Compound 345, 7-chloro-N-{3-[2-(4-chloro-3-fluorophenoxy)acetamido]bicyclo[1.1.1]pentan-1-yl}-3,4-dihydro-2H-1-benzopyran-3-carboxamide] has an EC50 of over 2000 nM.
In the case of `O=C(COc1ccc(Cl)c(F)c1)NC12CC(NC(=O)c3cc(=O)c4cc(O)ccc4o3)(C1)C2` [Compound 346, N-{3-[2-(4-chloro-3-fluorophenoxy)acetamido]bicyclo[1.1.1]pentan-1-yl}-6-hydroxy-4-oxo-4H-1-benzopyran-2-carboxamide], the EC50 is reported as 500 to 2000 nM.
Work on `Cc1cc2c(cc1F)C(O)CC(C(=O)NC13CC(NC(=O)COc4ccc(Cl)c(F)c4)(C1)C3)O2` (stereo not drawn) [Compound 347, N-{3-[2-(4-chloro-3-fluorophenoxy)acetamido]bicyclo[1.1.1]pentan-1-yl}-6-fluoro-4-hydroxy-7-methyl-3,4-dihydro-2H-1-benzopyran-2-carboxamide] yielded an EC50 of under 10 nM.
`CC(C)(O)CN1C[C@@H](C(=O)NC23CC(NC(=O)COc4ccc(Cl)c(F)c4)(C2)C3)Oc2ccc(Cl)cc21` [Compound 348, (2S)-6-chloro-N-{3-[2-(4-chloro-3-fluorophenoxy)acetamido]bicyclo[1.1.1]pentan-1-yl}-4-(2-hydroxy-2-methylpropyl)-3,4-dihydro-2H-1,4-benzoxazine-2-carboxamide] was tested, and the EC50 was 50 to 250 nM.
For `O=C(COc1ccc(Cl)c(F)c1)NC12CC(NC(=O)C3CC(NC4COC4)c4cc(Cl)ccc4O3)(C1)C2` (stereo not drawn) [Compound 349, 6-chloro-N-{3-[2-(4-chloro-3-fluorophenoxy)acetamido]bicyclo[1.1.1]pentan-1-yl}-4-[(oxetan-3-yl)amino]-3,4-dihydro-2H-1-benzopyran-2-carboxamide], the EC50 was 10 to 50 nM.
Work on `O=C(COc1ccc(Cl)c(F)c1)NC12CC(NC(=O)C3(F)CC(O)c4cc(Cl)ccc4O3)(C1)C2` (stereo not drawn) [Compound 350, 6-chloro-N-{3-[2-(4-chloro-3-fluorophenoxy)acetamido]bicyclo[1.1.1]pentan-1-yl}-2-fluoro-4-hydroxy-3,4-dihydro-2H-1-benzopyran-2-carboxamide] yielded an EC50 of under 10 nM.
`O=C(COc1cc(F)c2cn[nH]c2c1)NC12CC(NC(=O)[C@H]3C[C@@H](O)c4cc(Cl)ccc4O3)(C1)C2` [Compound 351, (2R,4R)-6-chloro-N-(3-{2-[(4-fluoro-1H-indazol-6-yl)oxy]acetamido}bicyclo[1.1.1]pentan-1-yl)-4-hydroxy-3,4-dihydro-2H-1-benzopyran-2-carboxamide] was tested, and the EC50 was under 10 nM.
Compound `O=C(NC12CCC(NC(=O)[C@H]3CC(=O)c4cc(Cl)ccc4O3)(CC1)C[C@@H]2O)c1cnc(C(F)F)cn1` [Compound 352, N-[(2S)-4-{[(2R)-6-chloro-4-oxo-3,4-dihydro-2H-1-benzopyran-2-carbonyl]amino}-2-hydroxybicyclo[2.2.2]octan-1-yl]-5-(difluoromethyl)pyrazine-2-carboxamide] has an EC50 of 500 to 2000 nM.
`O=C(NC12CCC(NC(=O)[C@H]3C[C@@H](O)c4cc(Cl)ccc4O3)(CC1)C[C@@H]2O)c1cnc(C(F)F)cn1` [Compound 353, N-[(2S)-4-{[(2R,4R)-6-chloro-4-hydroxy-3,4-dihydro-2H-1-benzopyran-2-carbonyl]amino}-2-hydroxybicyclo[2.2.2]octan-1-yl]-5-(difluoromethyl)pyrazine-2-carboxamide] showed an EC50 of 50 to 250 nM.
`O=C(COc1cc(F)c2cn[nH]c2c1)NC12CCC(NC(=O)[C@H]3C[C@@H](O)c4cc(Cl)ccc4O3)(CC1)[C@@H](O)C2` [Compound 355, (2R,4R)-6-chloro-N-[(2S)-4-{2-[(4-fluoro-1H-indazol-6-yl)oxy]acetamido}-2-hydroxybicyclo[2.2.2]octan-1-yl]-4-hydroxy-3,4-dihydro-2H-1-benzopyran-2-carboxamide] gave an EC50 of under 10 nM.
Work on `Cc1csc(C(=O)NC23CCC(NC(=O)[C@H]4C[C@@H](O)c5cc(Cl)ccc5O4)(CC2)C[C@@H]3O)n1` [Compound 356, N-[(2S)-4-{[(2R,4R)-6-chloro-4-hydroxy-3,4-dihydro-2H-1-benzopyran-2-carbonyl]amino}-2-hydroxybicyclo[2.2.2]octan-1-yl]-4-methyl-1,3-thiazole-2-carboxamide] yielded an EC50 of 50 to 250 nM.
`O=C(NC12CCC(NC(=O)[C@H]3CC(=O)c4cc(Cl)ccc4O3)(CC1)CC2)c1ccc(OC(F)(F)F)cn1` [Compound 357, N-(4-{[(2R)-6-chloro-4-oxo-3,4-dihydro-2H-1-benzopyran-2-carbonyl]amino}bicyclo[2.2.2]octan-1-yl)-5-(trifluoromethoxy)pyridine-2-carboxamide] gave an EC50 of 500 to 2000 nM.
`O=C(NC12CCC(NC(=O)[C@@H]3CC(=O)c4cc(Cl)ccc4O3)(CC1)CC2)c1ccc(OC(F)(F)F)cn1` [Compound 358, N-(4-{[(2S)-6-chloro-4-oxo-3,4-dihydro-2H-1-benzopyran-2-carbonyl]amino}bicyclo[2.2.2]octan-1-yl)-5-(trifluoromethoxy)pyridine-2-carboxamide] gave an EC50 of over 2000 nM.
In the case of `Cc1cc(OCC(=O)NC23CC(NC(=O)[C@H]4C[C@@H](O)c5cc(F)c(F)cc5O4)(C2)C3)ccc1F` [Compound 359, (2R,4R)-6,7-difluoro-N-{3-[2-(4-fluoro-3-methylphenoxy)acetamido]bicyclo[1.1.1]pentan-1-yl}-4-hydroxy-3,4-dihydro-2H-1-benzopyran-2-carboxamide], the EC50 is reported as under 10 nM.
Compound `Cc1cc(OCC(=O)NC23CC(NC(=O)[C@@H]4C[C@H](O)c5cc(Cl)ccc5O4)(C2)C3)ccc1F` [Compound 360, (2S,4S)-6-chloro-N-{3-[2-(4-fluoro-3-methylphenoxy)acetamido]bicyclo[1.1.1]pentan-1-yl}-4-hydroxy-3,4-dihydro-2H-1-benzopyran-2-carboxamide] has an EC50 of 10 to 50 nM.
`O=C(NC12CCC(NC(=O)[C@H]3C[C@@H](O)c4cc(Cl)ccc4O3)(CC1)CC2)c1ccc(OC(F)(F)F)cn1` [Compound 361, N-(4-{[(2R,4R)-6-chloro-4-hydroxy-3,4-dihydro-2H-1-benzopyran-2-carbonyl]amino}bicyclo[2.2.2]octan-1-yl)-5-(trifluoromethoxy)pyridine-2-carboxamide] showed an EC50 of 50 to 250 nM.
`O=C(NC12CCC(NC(=O)[C@@H]3C[C@H](O)c4cc(Cl)ccc4O3)(CC1)CC2)c1ccc(OC(F)(F)F)cn1` [Compound 362, N-(4-{[(2S,4S)-6-chloro-4-hydroxy-3,4-dihydro-2H-1-benzopyran-2-carbonyl]amino}bicyclo[2.2.2]octan-1-yl)-5-(trifluoromethoxy)pyridine-2-carboxamide] was tested, and the EC50 was 500 to 2000 nM.
In the case of `O=C(COc1ccc(Cl)c(F)c1)NC12CCC(NC(=O)C3CC(=O)c4cc(Cl)ccc4O3)(CC1)NC2=O` (stereo not drawn) [Compound 363, 6-chloro-N-{4-[2-(4-chloro-3-fluorophenoxy)acetamido]-3-oxo-2-azabicyclo[2.2.2]octan-1-yl}-4-oxo-3,4-dihydro-2H-1-benzopyran-2-carboxamide], the EC50 is reported as 10 to 50 nM.
With `O=C(COc1ccc(Cl)c(F)c1)NC12CC(NC(=O)[C@H]3C[C@H](O)c4cc(Cl)c(F)cc4O3)(C1)C2` [Compound 367, (2R,4S)-6-chloro-N-{3-[2-(4-chloro-3-fluorophenoxy)acetamido]bicyclo[1.1.1]pentan-1-yl}-7-fluoro-4-hydroxy-3,4-dihydro-2H-1-benzopyran-2-carboxamide] the EC50 was under 10 nM.
In the case of `O=C(NC12CCC(NC(=O)[C@H]3C[C@@H](O)c4cc(Cl)ccc4O3)(C1)C2)c1ccc(OC(F)(F)F)cn1` [Compound 373, N-(4-{[(2R,4R)-6-chloro-4-hydroxy-3,4-dihydro-2H-1-benzopyran-2-carbonyl]amino}bicyclo[2.1.1]hexan-1-yl)-5-(trifluoromethoxy)pyridine-2-carboxamide], the EC50 is reported as 10 to 50 nM.

Reference: patent publication US20240018133A1, “MODULATORS OF THE INTEGRATED STRESS PATHWAY” (Calico Life Sciences LLC, priority 2019, published 2024)
